Source: publication PMC7347136 (PLoS ONE, 2020)

Experiments:
[1] = tested on: panel of 256 kinases; test: Carna 256-kinase selectivity panel, overall; assay type: biochemical; settings: 1 μM
Description: IC50 values were determined from a 10-point concentration curve using ATP concentrations approximating Km values. […] The percentage inhibition of each test solution was calculated, which allowed the IC50 value to be determined from concentration versus percentage inhibition curves by fitting to a four parameter logistic curve.

[2] = target: T1, MER (Homo sapiens, UniProt Q12866); test: Carna kinase panel screen; assay type: biochemical; settings: read-out: % Inhibition ± SD
T1 construct: purchased Carna Biosciences
Procedure, shortened: (§1)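 ATP was used at roughly Km levels while compounds were titrated over a 10-point curve. IC50 values came from four-parameter logistic fits of concentration versus percentage inhibition.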

[3] = target: T2, MAP2K7 (Homo sapiens, UniProt O14733); test: Carna kinase panel screen; assay type: biochemical; settings: read-out: % Inhibition ± SD
T2 construct: purchased Carna Biosciences
Procedure, shortened: as §1

[4] = target: T3, ZAP70 (Homo sapiens, UniProt P43403); test: Carna kinase panel screen; assay type: biochemical; settings: read-out: % Inhibition ± SD
T3 construct: purchased Carna Biosciences
Procedure, shortened: as §1

[5] = target: T4, BTK (Homo sapiens, UniProt Q06187); test: Carna kinase panel screen; assay type: biochemical; settings: read-out: % Inhibition ± SD
T4 construct: purchased Carna Biosciences
Procedure, shortened: as §1

[6] = target: T5, PKCq (Homo sapiens, UniProt Q04759); test: Carna kinase panel screen; assay type: biochemical; settings: read-out: % Inhibition ± SD
T5 construct: purchased Carna Biosciences
Procedure, shortened: as §1

[7] = target: T6, CDK2 (Homo sapiens, UniProt P24941); test: Carna kinase panel screen; assay type: biochemical; settings: read-out: % Inhibition ± SD
T6 construct: purchased Carna Biosciences
Procedure, shortened: as §1

[8] = target: T7, TRKC (Homo sapiens, UniProt Q16288); test: Carna kinase panel screen; assay type: biochemical; settings: read-out: % Inhibition ± SD
T7 construct: purchased Carna Biosciences
Procedure, shortened: as §1

[9] = target: T8, MSK2 (Homo sapiens, UniProt O75676); test: Carna kinase panel screen; assay type: biochemical; settings: read-out: % Inhibition ± SD
T8 construct: purchased Carna Biosciences
Procedure, shortened: as §1

[10] = target: T9, HGK (Homo sapiens, UniProt O95819); test: Carna kinase panel screen; assay type: biochemical; settings: read-out: % Inhibition ± SD
T9 construct: purchased Carna Biosciences
Procedure, shortened: as §1

[11] = target: T10, IGF1R (Homo sapiens, UniProt P08069); test: Carna kinase panel screen; assay type: biochemical; settings: read-out: % Inhibition ± SD
T10 construct: purchased Carna Biosciences
Procedure, shortened: (§2)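 Values are IC50s, derived by four-parameter logistic regression of percentage inhibition against concentration. Each curve used 10 concentrations and ATP close to Km.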

[12] = target: T11, WNK1 (Homo sapiens, UniProt Q9H4A3); test: Carna kinase panel screen; assay type: biochemical; settings: read-out: % Inhibition ± SD
T11 construct: purchased Carna Biosciences
Procedure, shortened: as §1

[13] = target: T12, PGK (Homo sapiens, UniProt Q13976); test: Carna kinase panel screen; assay type: biochemical; settings: read-out: % Inhibition ± SD
T12 construct: purchased Carna Biosciences
Procedure, shortened: as §2

[14] = target: T13, INSR (Homo sapiens, UniProt P06213); test: Carna kinase panel screen; assay type: biochemical; settings: read-out: % Inhibition ± SD
T13 construct: purchased Carna Biosciences
Procedure, shortened: as §1

[15] = target: T14, SLK (Homo sapiens, UniProt Q9H2G2); test: Carna kinase panel screen; assay type: biochemical; settings: read-out: % Inhibition ± SD
T14 construct: purchased Carna Biosciences
Procedure, shortened: as §1

[16] = target: T15, MINK (Homo sapiens, UniProt Q8N4C8); test: Carna kinase panel screen; assay type: biochemical; settings: read-out: % Inhibition ± SD
T15 construct: purchased Carna Biosciences
Procedure, shortened: as §1

[17] = target: T16, TNK1 (Homo sapiens, UniProt Q13470); test: Carna kinase panel screen; assay type: biochemical; settings: read-out: % Inhibition ± SD
T16 construct: purchased Carna Biosciences
Procedure, shortened: as §1

[18] = target: T17, CaMK1a (Homo sapiens, UniProt Q14012); test: Carna kinase panel screen; assay type: biochemical; settings: read-out: % Inhibition ± SD
T17 construct: purchased Carna Biosciences
Procedure, shortened: as §1

[19] = target: T18, Erk2 (Homo sapiens, UniProt P28482); test: Carna kinase panel screen; assay type: biochemical; settings: read-out: % Inhibition ± SD
T18 construct: purchased Carna Biosciences
Procedure, shortened: as §1

[20] = target: T19, MAP4K2 (Homo sapiens, UniProt Q12851); test: Carna kinase panel screen; assay type: biochemical; settings: read-out: % Inhibition ± SD
T19 construct: purchased Carna Biosciences
Procedure, shortened: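 IC50 from a 10-point concentration series run at ATP near Km; percent inhibition per concentration fitted to a four-parameter logistic curve.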

[21] = target: T20, AMPKa2 (Homo sapiens, UniProt P54646); test: Carna kinase panel screen; assay type: biochemical; settings: read-out: % Inhibition ± SD
T20 construct: purchased Carna Biosciences
Procedure, shortened: as §1

[22] = target: T21, HCK (Homo sapiens, UniProt P08631); test: Carna kinase panel screen; assay type: biochemical; settings: read-out: % Inhibition ± SD
T21 construct: purchased Carna Biosciences
Procedure, shortened: as §1

[23] = target: T22, IRAK1 (Homo sapiens, UniProt P51617); test: Carna kinase panel screen; assay type: biochemical; settings: read-out: % Inhibition ± SD
T22 construct: purchased Carna Biosciences
Procedure, shortened: as §1

[24] = target: T23, HER2 (Homo sapiens, UniProt P04626); test: Carna kinase panel screen; assay type: biochemical; settings: read-out: % Inhibition ± SD
T23 construct: purchased Carna Biosciences
Procedure, shortened: as §1

[25] = target: T24, MAPKAPK5 (Homo sapiens, UniProt Q8IW41); test: Carna kinase panel screen; assay type: biochemical; settings: read-out: % Inhibition ± SD
T24 construct: purchased Carna Biosciences
Procedure, shortened: as §1

[26] = target: T25, TXK (Homo sapiens, UniProt P42681); test: Carna kinase panel screen; assay type: biochemical; settings: read-out: % Inhibition ± SD
T25 construct: purchased Carna Biosciences
Procedure, shortened: as §1

[27] = target: T26, NEK6 (Homo sapiens, UniProt Q9HC98); test: Carna kinase panel screen; assay type: biochemical; settings: read-out: % Inhibition ± SD
T26 construct: purchased Carna Biosciences
Procedure, shortened: as §1

[28] = target: T27, CDK4/cyclin D3 (Homo sapiens, UniProt P11802); test: Kinase assay with recombinant CDK/cyclins (Cyclacel); assay type: biochemical
T27 construct: made in house
Description: (§3) Kinase assays for CDK2, CDK4, CDK7 and CDK9 were carried out as described previously using recombinant CDK/cyclins generated at Cyclacel Ltd, Dundee, UK [29, 34, 35].

[29] = target: T28, CDK7/cyclin H1/MAT1 (Homo sapiens, UniProt P50613); test: as above; assay type: biochemical
T28 construct: purchased Carna Biosciences
Description: as §3

[30] = target: T29, CDK2/cyclin E (Homo sapiens, UniProt P24941); test: as above; assay type: biochemical
T29 construct: made in house
Description: as §3

[31] = tested on: subcutaneous HL60 tumors; test: HL-60 human promyelocytic leukemia xenograft model; assay type: in vivo, athymic NCr-nu/nu mice
Source text: Five-week-old female athymic NCr-nu/nu mice were purchased from Harlan Sprague-Dawley (Prattville, AL). The animals were housed in microisolator cages, with up to five animals per cage in a 12-h light/dark cycle. The animals received filtered water and sterilized rodent diet (Harlan-Teklad TD8656) ad libitum. Each mouse was implanted subcutaneously near the right flank with ten million HL-60 cells using a 23-gauge needle and allowed to grow. Tumors were allowed to reach 75–144 mm^3 in size before treatment initiation. […] The %TGI values were calculated and statistical analyses performed as above.

[32] = tested on: sensitive AML cell lines; test: Viacount viability assay by flow cytometry; assay type: cell-based; settings: Homo sapiens, 6 h pulse, assessed at 48 h, read-out: non-viable cells
Description: AML cells were seeded at 5 x 10^5 cells/ml in a 6-well plate and incubated with the test compound or vehicle control (DMSO) for 6, 8 or 10 h. At the end of the incubation period, cells were collected into Falcon tubes, pelleted via centrifugation (5 min at 478 x g), and medium containing compound was aspirated. The cells were resuspended in 4 ml of fresh compound-free medium and returned to the 6-well plates for further incubation. Following compound addition, 100 μl (at 24 h), 75 μl (at 48 h), 50 μl (at 72 h) or 30 μl (at 96 h) of a homogeneous suspension of cells were removed from the culture, made up to 100 μl with medium and mixed with 100 μl Guava Viacount reagent (Millipore, Nottingham, UK) in a 96-well plate. Samples were incubated for 20 min in the dark, mixed and then analyzed by GuavaSoft 2.6 software on the Guava Easycyte 8HT (Millipore). Guava Viacount software was used to gate and calculate the proportion of viable and dead cells in the population.

T26 sequence (Q9HC98 whole entry): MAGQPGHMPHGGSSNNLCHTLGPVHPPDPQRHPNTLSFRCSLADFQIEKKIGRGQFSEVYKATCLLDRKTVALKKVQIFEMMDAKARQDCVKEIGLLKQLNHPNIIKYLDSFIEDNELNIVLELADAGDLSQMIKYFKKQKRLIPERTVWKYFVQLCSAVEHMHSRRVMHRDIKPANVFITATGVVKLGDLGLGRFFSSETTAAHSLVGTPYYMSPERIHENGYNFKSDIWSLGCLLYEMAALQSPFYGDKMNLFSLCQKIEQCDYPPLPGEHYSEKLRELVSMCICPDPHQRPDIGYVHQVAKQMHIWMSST
T18 sequence (P28482 whole entry): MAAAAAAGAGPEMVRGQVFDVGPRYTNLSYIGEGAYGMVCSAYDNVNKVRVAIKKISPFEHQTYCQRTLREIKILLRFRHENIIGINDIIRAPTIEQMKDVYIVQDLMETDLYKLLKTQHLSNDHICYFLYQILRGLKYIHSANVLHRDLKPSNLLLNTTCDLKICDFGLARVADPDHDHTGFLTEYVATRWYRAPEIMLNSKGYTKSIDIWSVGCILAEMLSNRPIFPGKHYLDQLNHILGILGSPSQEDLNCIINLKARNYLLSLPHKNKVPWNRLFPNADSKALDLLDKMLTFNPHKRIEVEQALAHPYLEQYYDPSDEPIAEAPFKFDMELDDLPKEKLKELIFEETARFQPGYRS
T9 sequence (O95819 whole entry): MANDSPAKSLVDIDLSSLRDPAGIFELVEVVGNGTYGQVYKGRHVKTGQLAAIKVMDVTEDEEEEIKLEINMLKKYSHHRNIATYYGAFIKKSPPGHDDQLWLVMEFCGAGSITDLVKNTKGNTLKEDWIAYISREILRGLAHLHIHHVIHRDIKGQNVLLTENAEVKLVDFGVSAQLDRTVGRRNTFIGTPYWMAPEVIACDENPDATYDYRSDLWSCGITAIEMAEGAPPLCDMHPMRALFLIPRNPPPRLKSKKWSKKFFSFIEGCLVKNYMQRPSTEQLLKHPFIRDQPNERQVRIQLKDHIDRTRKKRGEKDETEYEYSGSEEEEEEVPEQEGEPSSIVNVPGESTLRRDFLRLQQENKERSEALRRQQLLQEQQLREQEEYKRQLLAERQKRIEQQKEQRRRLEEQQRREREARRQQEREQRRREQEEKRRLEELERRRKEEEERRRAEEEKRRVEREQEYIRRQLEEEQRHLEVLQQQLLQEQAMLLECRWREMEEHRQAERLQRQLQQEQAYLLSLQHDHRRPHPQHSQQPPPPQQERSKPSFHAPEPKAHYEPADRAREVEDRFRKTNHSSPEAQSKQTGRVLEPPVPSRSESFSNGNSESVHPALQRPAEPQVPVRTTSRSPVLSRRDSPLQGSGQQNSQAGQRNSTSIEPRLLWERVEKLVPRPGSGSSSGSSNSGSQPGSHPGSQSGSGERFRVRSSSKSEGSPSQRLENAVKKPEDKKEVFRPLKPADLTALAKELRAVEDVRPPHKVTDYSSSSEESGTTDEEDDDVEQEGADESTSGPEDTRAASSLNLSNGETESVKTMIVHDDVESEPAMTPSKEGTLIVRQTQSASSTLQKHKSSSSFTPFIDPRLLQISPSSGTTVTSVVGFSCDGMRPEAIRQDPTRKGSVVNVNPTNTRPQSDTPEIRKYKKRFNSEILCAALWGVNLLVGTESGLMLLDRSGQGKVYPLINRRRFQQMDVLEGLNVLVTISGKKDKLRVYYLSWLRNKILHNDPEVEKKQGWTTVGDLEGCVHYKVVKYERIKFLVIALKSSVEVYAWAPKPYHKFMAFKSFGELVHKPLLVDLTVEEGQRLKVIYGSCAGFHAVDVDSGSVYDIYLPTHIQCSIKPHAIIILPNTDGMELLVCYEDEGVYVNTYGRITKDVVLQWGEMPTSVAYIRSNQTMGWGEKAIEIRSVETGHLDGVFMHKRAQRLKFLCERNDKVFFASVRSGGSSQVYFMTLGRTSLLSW
T25 sequence (P42681 whole entry): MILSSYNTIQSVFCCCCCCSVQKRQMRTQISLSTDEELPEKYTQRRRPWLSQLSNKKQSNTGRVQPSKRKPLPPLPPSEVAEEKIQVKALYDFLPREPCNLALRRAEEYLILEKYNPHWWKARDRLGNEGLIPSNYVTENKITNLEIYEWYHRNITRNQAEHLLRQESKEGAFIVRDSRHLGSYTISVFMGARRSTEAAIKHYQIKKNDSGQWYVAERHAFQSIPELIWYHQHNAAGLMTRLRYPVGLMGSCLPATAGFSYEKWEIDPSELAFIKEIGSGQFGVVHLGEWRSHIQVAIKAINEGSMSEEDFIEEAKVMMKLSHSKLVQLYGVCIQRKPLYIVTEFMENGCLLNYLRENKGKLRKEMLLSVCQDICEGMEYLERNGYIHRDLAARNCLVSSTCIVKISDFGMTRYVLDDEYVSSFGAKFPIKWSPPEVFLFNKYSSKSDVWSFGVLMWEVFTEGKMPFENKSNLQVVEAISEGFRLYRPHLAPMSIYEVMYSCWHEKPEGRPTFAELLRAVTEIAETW
T7 sequence (Q16288 32-839): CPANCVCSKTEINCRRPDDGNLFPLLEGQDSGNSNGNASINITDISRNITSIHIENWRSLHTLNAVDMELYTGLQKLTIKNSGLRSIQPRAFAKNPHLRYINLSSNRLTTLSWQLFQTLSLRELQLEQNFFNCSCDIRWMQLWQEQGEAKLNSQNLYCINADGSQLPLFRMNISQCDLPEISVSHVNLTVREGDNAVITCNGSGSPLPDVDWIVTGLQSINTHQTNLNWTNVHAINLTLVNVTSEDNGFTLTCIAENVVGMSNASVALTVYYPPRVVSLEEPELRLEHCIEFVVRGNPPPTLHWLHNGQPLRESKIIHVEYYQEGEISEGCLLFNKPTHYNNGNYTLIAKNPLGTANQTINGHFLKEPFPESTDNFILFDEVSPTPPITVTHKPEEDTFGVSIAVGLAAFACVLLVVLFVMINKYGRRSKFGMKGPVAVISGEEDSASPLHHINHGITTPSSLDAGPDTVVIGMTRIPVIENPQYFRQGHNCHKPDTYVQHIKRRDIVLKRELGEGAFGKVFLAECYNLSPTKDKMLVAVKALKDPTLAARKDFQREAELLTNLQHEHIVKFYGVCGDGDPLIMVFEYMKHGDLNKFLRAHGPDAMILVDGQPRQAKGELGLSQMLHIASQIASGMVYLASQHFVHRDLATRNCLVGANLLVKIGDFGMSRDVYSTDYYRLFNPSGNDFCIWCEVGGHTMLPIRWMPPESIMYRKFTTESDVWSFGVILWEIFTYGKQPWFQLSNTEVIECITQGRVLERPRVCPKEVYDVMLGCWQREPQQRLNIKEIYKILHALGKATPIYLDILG
T12 sequence (Q13976 whole entry): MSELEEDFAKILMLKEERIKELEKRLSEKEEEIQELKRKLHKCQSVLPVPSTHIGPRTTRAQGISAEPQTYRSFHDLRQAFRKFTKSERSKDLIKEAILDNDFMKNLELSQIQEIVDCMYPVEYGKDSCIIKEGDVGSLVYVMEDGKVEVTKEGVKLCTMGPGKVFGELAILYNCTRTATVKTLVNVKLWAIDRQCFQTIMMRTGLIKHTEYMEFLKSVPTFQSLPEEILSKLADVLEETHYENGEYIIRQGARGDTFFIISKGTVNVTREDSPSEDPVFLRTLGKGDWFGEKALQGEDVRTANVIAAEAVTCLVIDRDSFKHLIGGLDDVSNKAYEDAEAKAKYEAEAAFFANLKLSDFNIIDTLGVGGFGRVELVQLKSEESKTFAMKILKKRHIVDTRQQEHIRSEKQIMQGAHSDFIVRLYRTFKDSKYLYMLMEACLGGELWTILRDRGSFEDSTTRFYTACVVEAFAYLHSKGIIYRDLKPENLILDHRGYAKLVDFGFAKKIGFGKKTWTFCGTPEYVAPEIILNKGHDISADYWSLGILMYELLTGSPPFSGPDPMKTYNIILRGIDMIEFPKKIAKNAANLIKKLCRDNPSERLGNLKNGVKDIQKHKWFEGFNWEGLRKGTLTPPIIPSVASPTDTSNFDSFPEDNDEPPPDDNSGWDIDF
T17 sequence (Q14012 whole entry): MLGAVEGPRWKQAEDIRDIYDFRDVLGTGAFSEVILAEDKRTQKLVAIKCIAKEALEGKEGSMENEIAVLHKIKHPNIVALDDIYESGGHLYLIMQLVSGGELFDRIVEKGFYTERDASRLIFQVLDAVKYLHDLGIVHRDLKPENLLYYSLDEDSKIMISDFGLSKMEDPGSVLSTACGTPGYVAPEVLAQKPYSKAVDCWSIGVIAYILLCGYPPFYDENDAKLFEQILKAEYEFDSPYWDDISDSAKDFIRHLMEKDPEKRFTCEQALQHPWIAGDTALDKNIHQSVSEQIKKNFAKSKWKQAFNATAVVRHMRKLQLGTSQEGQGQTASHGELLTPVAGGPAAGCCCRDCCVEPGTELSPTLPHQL
T16 sequence (Q13470 whole entry): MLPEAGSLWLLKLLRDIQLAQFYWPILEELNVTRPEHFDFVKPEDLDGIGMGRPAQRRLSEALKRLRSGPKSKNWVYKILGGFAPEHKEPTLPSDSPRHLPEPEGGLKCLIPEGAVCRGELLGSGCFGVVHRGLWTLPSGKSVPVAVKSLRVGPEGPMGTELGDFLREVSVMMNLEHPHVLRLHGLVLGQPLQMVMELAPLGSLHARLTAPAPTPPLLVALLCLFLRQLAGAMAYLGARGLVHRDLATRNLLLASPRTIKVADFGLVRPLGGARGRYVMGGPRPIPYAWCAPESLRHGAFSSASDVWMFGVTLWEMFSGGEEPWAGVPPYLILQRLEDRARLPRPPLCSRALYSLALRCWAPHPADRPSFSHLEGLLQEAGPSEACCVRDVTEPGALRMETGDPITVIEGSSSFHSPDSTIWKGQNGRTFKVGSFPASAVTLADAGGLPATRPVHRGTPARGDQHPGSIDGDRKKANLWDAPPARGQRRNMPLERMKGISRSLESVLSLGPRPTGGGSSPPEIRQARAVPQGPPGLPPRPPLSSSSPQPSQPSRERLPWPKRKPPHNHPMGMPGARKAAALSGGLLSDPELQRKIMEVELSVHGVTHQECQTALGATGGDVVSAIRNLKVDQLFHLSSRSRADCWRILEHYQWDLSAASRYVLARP

CC[C@H](Nc1nc(NCc2cnc(C)cc2C)c2ncn(C(C)C)c2n1)[C@@H](C)O [Fadraciclib, 2-pentanol, 3-[[6-[[(4,6-dimethyl-3-pyridinyl)methyl]amino]-9-(1-methylethyl)-9Hpurin-2-yl]amino]-, (2R,3S)]
number of kinases inhibited >50% [1]: 9 | inhibition at 1 µM [2]: -9.1 ± 0.1% | inhibition at 1 µM [3]: -10.6 ± 0.6% | inhibition at 1 µM [4]: -11.6 ± 0.3% | inhibition at 1 µM [5]: 5.3 ± 0.4% | inhibition at 1 µM [6]: 0.7% | inhibition at 1 µM [7]: 97.3% | inhibition at 1 µM [8]: 7.2 ± 0.3% | inhibition at 1 µM [9]: -3.7% | inhibition at 1 µM [10]: -23.8 ± 2.7% | inhibition at 1 µM [11]: -17.1 ± 0.2% | inhibition at 1 µM [12]: -3.3% | inhibition at 1 µM [13]: -21.7 ± 0.2% | inhibition at 1 µM [14]: -12.2 ± 0.8% | inhibition at 1 µM [15]: 2.5 ± 0.1% | inhibition at 1 µM [16]: -15.8 ± 0.3% | inhibition at 1 µM [17]: -0.2 ± 0.2% | inhibition at 1 µM [18]: -14.8 ± 0.2% | inhibition at 1 µM [19]: 19.6 ± 0.8% | inhibition at 1 µM [20]: 2 ± 0.1% | inhibition at 1 µM [21]: -12.8 ± 0.7% | inhibition at 1 µM [22]: -4.9 ± 0.1% | inhibition at 1 µM [23]: 1.6 ± 0.1% | inhibition at 1 µM [24]: -17.6 ± 1% | inhibition at 1 µM [25]: -14.5 ± 0.2% | inhibition at 1 µM [26]: 3.1 ± 0.1% | inhibition at 1 µM [27]: -16.6 ± 0.5% | IC50 [28]: > 10000 nM | IC50 [29]: 730 ± 160 nM | IC50 [30]: 20 ± 1 nM | mean body weight loss ([31]; 70 mg/kg oral (highest dose)): 8% | tumor growth delay T-C ([31]; 70 mg/kg oral, 5 days on/2 days off, 2 cycles): > 12.6 days | TGI ([31]; 70 mg/kg oral, Day 11): 90% | tumor regression ([31]; 70 mg/kg oral, groups of 10 animals): Two animals achieved tumor regression and one was determined to be tumor-free | cytotoxicity at 1 µM [32]: ~100%
